Experimental data as given in patent publication US20160057994A1, “Aplatelet Clays for Sustained Release of Active Ingredients” (BioGuard Research and Development, Inc., priority 2013, published 2016).

How the values were obtained:
[1] = Accelerated flow-device release test of injection molded sheets; format: physicochemical
Experimental: Injection molded samples (Table 3) were prepared using a Model 45 MINI-JECTOR (Mini-Jector Machinery Corp., Newbury, Ohio). The mold to be used produces test sheets that were 7.5×5 cm and 1 mm thick. The polyethylene used was powdered Quantum Microthene (XU594, 35 mesh). The polymer was mixed with the aplatelet clay or aplatelet nanoclay to provide a final ratio of 2 parts trifluralin to 20 parts polymer (24 gm load for each injection). For the PE, the injector is set up to melt the mixture at 127° C., with the injection nozzle heated to 138° C. Polypropylene is melted and injected at 163° C.
These sheets were washed in 90% MeOH to remove surface TFN contamination and placed into a flow device that exposes the sample to water that contains 0.01% Tween 20 and 0.5% MeOH. The system is operated at room temperature (ca. 23° C.). These conditions are used as an accelerated test in which 24 hours represents 2-3 years of exposure in the environment. During the first few hours, the release rate is high, usually over 100 μg/cm^2/day.

[2] = Accelerated flow-device release test of extruded/spun fibers; format: physicochemical; settings: trifluralin/nanoclay/polypropylene fiber material, water with 0.01% Tween 20, ca. 23° C.
Experimental: For extrusion and spinning of fibers, the trifluralin-loaded nanoclay is prepared from batches containing 3500 grams of trifluralin and 5476 grams of the nanoclay by the method described in Example 1. The particle size requirement is that the sample pass through a #60 U.S. Sieve (<250 microns). The loading of the trifuralin/nanoclay/polypropylene fiber material in a polyester matrix that is adjusted to provide between 4 and 8% TFN (w/w) for the first fiber run, and 3% TFN (w/w) for the second test run. Pelletized PP material is used for the extrusion and spinning of fibers.
These samples are placed in a flow device that exposed the sample to water that contains 0.01% Tween 20. It is operated at room temperature (ca. 23° C.). These conditions are used as an accelerated test in which 24 hours represents 2 or 3 years of exposure in the environment. This correlation is based on the slope of Arrenhius plots over a temperature range of 10° C. to 50° C. similar systems. During the first few hours, the release rate is high, usually over 100 μg/cm^2/day. The test is continued until the release rate reaches the steady state.

With `CCCN(CCC)c1c([N+](=O)[O-])cc(C(F)(F)F)cc1[N+](=O)[O-]` [trifluralin, Trifluralin] the “release rate during the first few hours” value ([1]; injection molded polymer sheets with trifluralin-loaded aplatelet clay or nanoclay, water with 0.01% Tween 20 and 0.5% MeOH, ca. 23° C., first few hours) was “over 100 μg/cm^2/day”, the “rate of trifluralin release from polypropylene relative to standard polyethylene” value ([1]; polypropylene matrix versus standard polyethylene) was at least 2% and the “release rate during the first few hours” value [2] was “over 100 μg/cm^2/day”.
